Source: ChEMBL document CHEMBL1201862, “PubChem BioAssay data set” (2004)
The source made the active and inactive calls.

What was measured:
Fatty acid synthase [1] = target: T1, Fatty acid synthase (Homo sapiens, UniProt P49327); assay: inhibition of human FAS-TE enzyme activity – biochemical, endpoint fluorescence intensity, uHTS hits, dose response (AID 624327); format: functional;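 note: fluorescence from hydrolysis of an O-methyl fluorescein acyl ester substrate by the enzyme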
Fatty acid synthase [2] = target: T1, Fatty acid synthase; assay: inhibition of human FAS-TE enzyme activity – biochemical, kinetic fluorescence intensity, dose response (AID 624326); format: functional;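 note: rate of fluorescence rise from hydrolysis of a fluorogenic O-methyl fluorescein ester substrate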
[3] = target: T2, High affinity choline transporter 1 (Homo sapiens, UniProt Q9GZV3); assay: human choline transporter blockers, potency – cell-based, 5-point CRC, membrane potential dye, dose response (AID 504840); format: functional
T2 sequence (Q9GZV3 whole entry): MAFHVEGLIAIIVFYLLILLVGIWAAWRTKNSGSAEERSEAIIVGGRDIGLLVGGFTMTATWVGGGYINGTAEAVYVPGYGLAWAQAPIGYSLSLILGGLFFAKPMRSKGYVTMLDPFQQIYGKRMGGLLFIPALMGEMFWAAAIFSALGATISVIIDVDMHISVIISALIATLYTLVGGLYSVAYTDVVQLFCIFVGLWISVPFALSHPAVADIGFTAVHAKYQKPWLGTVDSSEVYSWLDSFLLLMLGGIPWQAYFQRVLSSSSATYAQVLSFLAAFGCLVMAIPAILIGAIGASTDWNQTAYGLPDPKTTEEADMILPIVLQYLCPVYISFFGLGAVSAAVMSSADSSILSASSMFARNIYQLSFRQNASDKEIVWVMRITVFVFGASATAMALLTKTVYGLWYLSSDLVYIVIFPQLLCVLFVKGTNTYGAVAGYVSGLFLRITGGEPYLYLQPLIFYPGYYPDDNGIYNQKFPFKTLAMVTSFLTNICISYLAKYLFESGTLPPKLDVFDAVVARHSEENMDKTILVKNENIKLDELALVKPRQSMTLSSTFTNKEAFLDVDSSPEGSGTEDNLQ

[4] = target: T3, Calpain-2 catalytic subunit (Sus scrofa, UniProt P43367); assay: m-calpain protease blockers, concentration series – biochemical, fluorogenic peptide substrate, dose response (AID 1420); format: functional
T3 sequence (P43367 whole entry): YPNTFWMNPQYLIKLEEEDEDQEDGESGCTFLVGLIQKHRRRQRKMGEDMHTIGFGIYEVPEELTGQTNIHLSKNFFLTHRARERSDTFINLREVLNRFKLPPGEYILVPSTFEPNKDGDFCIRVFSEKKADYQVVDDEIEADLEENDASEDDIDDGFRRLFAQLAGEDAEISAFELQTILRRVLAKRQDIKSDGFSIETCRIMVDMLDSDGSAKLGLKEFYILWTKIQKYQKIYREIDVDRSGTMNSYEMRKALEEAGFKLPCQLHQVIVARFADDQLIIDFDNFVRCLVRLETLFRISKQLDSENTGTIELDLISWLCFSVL

[5] = target: Induced myeloid leukemia cell differentiation protein Mcl-1 (Homo sapiens, UniProt Q07820); format: functional
Chain of Induced myeloid leukemia cell differentiation protein Mcl-1 (Q07820 whole entry): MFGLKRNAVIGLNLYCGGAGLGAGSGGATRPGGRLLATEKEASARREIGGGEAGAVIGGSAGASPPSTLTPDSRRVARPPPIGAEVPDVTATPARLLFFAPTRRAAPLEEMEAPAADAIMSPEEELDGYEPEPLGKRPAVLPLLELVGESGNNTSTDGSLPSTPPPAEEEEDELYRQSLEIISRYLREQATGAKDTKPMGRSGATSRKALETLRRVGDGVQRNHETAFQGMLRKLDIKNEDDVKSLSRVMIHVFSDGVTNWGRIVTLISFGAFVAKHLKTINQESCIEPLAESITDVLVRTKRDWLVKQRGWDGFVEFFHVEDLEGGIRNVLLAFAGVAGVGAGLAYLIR

[6] = DRD fibroblast viability loss – cell-based, non-viral oncogenic, luminescence, dose response (AID 1934); format: functional; details: Homo sapiens
P388/ADR = assay: cells; format: functional; details: Mus musculus
BJ [7] = assay: cells; format: functional, cell-based; details: Homo sapiens
BJ [8] = assay: BJ-TERT fibroblast viability loss – cell-based, RAS-independent, luminescence, dose response (AID 1933); format: functional; details: Homo sapiens
P388 = assay: cells; format: functional; details: Mus musculus
BJ [9] = assay: BJ-TERT-LT-ST fibroblast viability loss – cell-based, RAS-independent, luminescence, dose response (AID 1935); format: functional; details: Homo sapiens;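 note: BJ fibroblasts immortalized with TERT plus LT and ST oncogenes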
INS1 = assay: INS-1E survival protection against cytokine death – cell-based, luminescence, retest, dose response (AID 449756); format: functional; details: Rattus norvegicus;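 note: cell death triggered by IL-1 beta plus TNF-alpha plus IFN-gamma mixture; protective hits raise ATP signal compared with cytokine alone wells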
SN12K1 = assay: cells; format: functional; details: Homo sapiens
[10] = target: T4, Short transient receptor potential channel 4 (Mus musculus, UniProt Q9QUQ5); assay: calcium entry via TRPC4 opening agents – cell-based, HEK293 TRPC4/mu-opioid, Fluo-4 calcium, dose response (AID 434937); format: functional
T4 sequence (Q9QUQ5 whole entry): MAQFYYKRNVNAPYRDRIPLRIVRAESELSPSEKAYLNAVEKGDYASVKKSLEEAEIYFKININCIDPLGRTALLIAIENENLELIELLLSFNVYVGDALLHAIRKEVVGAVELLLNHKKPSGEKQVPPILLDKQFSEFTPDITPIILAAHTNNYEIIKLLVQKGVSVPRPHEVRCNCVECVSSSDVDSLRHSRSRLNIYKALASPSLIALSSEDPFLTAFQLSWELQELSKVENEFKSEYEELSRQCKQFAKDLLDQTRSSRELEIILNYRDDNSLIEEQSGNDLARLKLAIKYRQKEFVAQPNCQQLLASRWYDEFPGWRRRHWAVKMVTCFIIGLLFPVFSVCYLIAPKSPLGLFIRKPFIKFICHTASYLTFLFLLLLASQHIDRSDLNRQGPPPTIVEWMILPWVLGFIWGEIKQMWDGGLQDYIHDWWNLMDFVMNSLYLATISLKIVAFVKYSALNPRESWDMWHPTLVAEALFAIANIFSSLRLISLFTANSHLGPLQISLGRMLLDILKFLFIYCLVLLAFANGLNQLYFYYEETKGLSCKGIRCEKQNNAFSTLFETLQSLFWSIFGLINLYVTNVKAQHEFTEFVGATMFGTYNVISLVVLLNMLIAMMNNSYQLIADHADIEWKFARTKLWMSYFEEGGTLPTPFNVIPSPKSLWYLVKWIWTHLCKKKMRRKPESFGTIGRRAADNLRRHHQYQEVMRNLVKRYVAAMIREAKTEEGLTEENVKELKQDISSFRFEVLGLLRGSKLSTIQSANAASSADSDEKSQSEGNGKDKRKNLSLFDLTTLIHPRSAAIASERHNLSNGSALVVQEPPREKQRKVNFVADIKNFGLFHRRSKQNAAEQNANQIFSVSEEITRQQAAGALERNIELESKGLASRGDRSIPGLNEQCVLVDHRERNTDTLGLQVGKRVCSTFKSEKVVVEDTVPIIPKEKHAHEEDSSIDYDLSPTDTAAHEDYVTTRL

[11] = blockers of HIV-1 envelope-mediated cell-cell fusion – cherry-pick, dose response (AID 652057); format: functional, cell-based
[12] = HIV-1 AD8 envelope cell-cell fusion blockers – cherry-pick, dose response (AID 652062); format: functional, cell-based;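 note: luciferase signal from cell-cell fusion driven by HIV-1 clade B AD8 Env; potency is for inhibitors of fusion seen as a drop in luminescence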
[13] = Luminescence Cell-Based Dose Retest to Confirm Inhibitors of Cancer Stem Cells. [Related pubchem assays (depositor defined):AID2717, AID2721]; format: functional; details: Homo sapiens
BJ [14] = assay: growth inhibition of engineered Ras-driven BJ cells – cell-based, alamar blue fluorescence, cherrypicked samples, dose response (AID 2631); format: functional; details: Homo sapiens;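 note: confirmatory dose-response assay in RAS-dependent BJ fibroblasts engineered with TERT, LT and ST, with cytotoxicity read by fluorescence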
Cytochrome P450 2C9 = Cytochrome P450 2C9 (Homo sapiens, UniProt P11712)
Chain of Cytochrome P450 2C9 (P11712 whole entry): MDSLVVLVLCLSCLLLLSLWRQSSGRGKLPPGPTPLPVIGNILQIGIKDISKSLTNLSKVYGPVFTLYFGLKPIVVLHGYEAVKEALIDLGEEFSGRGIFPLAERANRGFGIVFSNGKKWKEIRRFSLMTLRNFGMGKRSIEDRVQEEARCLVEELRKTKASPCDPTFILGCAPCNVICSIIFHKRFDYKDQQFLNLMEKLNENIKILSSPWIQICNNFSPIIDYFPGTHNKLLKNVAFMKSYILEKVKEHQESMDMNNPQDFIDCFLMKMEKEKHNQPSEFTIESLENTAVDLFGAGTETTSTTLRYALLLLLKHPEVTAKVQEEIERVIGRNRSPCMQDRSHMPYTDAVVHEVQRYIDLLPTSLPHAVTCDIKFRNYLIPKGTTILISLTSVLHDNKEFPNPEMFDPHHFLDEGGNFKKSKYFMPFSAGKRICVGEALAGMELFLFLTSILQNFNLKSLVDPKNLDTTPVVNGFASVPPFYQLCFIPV

Streptococcus = assay: GAS UMAA2166 growth inhibition – luminescence, BacTiterGlo, counter-screen for streptokinase expression inhibitor project, dose response (AID 1915); format: functional, organism-based;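 note: potency for reduction of bacterial viability or growth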
[15] = tested on: Streptococcus sp. 'group A'; assay: Streptococcus pyogenes SK(-)GAS viability under kanamycin – luminescence, BacTiterGlo, confirmation, counter-screen for streptokinase expression inhibitor project, dose response (AID 1900); format: functional, organism-based

T1 sequence (P49327 whole entry): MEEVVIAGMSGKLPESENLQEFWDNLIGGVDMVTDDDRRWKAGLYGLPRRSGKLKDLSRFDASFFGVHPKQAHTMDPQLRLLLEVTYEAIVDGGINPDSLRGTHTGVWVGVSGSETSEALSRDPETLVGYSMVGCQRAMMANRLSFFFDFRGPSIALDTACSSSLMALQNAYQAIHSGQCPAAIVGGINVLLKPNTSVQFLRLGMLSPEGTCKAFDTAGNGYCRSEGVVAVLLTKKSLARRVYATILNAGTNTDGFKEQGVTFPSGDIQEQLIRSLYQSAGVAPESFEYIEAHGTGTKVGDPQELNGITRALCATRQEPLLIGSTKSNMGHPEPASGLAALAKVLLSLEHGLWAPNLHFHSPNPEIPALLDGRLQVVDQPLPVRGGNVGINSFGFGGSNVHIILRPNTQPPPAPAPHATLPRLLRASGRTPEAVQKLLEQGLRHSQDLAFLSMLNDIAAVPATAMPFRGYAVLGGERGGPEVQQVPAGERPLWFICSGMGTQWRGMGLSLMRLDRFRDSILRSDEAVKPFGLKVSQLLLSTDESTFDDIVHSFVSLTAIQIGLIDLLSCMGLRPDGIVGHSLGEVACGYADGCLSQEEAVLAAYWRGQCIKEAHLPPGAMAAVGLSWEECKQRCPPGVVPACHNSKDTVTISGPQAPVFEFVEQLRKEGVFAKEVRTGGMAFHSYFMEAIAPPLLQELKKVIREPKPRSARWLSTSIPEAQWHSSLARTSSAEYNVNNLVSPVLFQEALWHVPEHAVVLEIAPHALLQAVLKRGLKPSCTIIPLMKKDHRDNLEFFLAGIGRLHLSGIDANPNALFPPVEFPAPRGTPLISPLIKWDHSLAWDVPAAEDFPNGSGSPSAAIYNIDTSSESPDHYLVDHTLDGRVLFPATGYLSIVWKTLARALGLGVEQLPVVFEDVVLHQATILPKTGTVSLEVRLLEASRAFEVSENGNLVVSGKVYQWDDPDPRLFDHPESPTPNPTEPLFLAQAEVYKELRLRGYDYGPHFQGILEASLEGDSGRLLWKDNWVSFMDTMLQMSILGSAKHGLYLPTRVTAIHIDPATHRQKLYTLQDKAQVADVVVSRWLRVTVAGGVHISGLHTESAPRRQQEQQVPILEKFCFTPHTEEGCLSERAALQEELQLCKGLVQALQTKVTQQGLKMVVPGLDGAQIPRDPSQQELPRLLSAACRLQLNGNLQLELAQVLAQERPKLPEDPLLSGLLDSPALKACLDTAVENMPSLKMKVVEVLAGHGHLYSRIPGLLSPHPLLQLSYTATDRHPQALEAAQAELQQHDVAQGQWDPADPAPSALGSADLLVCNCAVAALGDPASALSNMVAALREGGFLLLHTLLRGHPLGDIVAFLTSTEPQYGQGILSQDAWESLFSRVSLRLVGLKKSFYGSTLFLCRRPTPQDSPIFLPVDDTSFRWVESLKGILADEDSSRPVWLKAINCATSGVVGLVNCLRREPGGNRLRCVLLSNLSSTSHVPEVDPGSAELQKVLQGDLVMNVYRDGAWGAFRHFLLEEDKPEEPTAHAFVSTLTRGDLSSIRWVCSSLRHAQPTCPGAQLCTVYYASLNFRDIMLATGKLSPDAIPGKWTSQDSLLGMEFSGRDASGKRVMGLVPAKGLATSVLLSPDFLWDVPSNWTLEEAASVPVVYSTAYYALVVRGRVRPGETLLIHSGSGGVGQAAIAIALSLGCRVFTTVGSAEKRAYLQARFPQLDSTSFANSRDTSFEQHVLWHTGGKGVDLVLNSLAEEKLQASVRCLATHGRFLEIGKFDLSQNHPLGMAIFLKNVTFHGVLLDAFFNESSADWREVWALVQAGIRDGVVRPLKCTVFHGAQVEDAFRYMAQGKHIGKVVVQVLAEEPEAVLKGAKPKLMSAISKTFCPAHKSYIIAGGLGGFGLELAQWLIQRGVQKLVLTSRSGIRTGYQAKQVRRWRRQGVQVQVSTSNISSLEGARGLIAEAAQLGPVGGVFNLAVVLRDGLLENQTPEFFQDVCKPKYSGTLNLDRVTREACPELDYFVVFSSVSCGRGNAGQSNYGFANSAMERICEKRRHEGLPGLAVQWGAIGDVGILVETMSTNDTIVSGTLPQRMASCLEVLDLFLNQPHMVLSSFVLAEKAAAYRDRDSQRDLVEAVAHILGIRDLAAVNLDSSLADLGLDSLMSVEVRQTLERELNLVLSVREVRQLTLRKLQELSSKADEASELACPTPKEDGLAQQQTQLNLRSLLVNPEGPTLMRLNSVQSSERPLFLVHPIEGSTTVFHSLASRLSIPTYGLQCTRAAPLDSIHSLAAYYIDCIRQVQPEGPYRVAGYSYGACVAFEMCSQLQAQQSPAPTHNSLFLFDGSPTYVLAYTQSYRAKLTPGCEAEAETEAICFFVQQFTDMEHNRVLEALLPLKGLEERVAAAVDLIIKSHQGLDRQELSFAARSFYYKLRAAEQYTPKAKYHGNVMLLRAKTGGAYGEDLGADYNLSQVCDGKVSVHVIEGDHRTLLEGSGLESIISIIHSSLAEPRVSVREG

## COc1ccc([N+](=O)[O-])cc1NC(=O)CCCOc1ccccc1
Fatty acid synthase [1]
  IC50: 7.3 µM (active)
Fatty acid synthase [2]
  IC50: 8.62 µM (active)

## O=C(Nc1nc2ccc(S(=O)(=O)N3CCCCC3)cc2s1)c1cccnc1
[3]
  IC50: 13.2 µM (active)

## Cc1ccc(CNC(=O)c2ccc3c(=O)[nH]c4c(C(=O)NCC5CCCO5)sc(=S)n4c3c2)cc1 (stereo not given)
[4]
  IC50: 5.68 µM (active)
[5]
  IC50: 6.74 µM (active)

## CC1(C)N=C(N)N=C(N)N1c1ccc(OCCCOc2ccccc2)c(Cl)c1
[6]
  EC50: 0.174 µM (inconclusive)
P388/ADR
  GI50: 1.39 µM (inactive)
BJ [7]
  EC50: < 0.12 µM (active)
BJ [8]
  EC50: 23.8 µM (active)
P388
  GI50: < 0.01 µM (active)
BJ [9]
  EC50: > 150 µM (not active)
INS1
  AC50: 5.88 µM (active)
SN12K1
  GI50: 0.0289 µM (active)

## O=C(Nc1ccc(N2CCCC2)cc1)c1ccc(Br)o1
[5]
  IC50: 0.932 µM (active)

## O=C1NC(=S)S/C1=C\c1coc2ccccc2c1=O
[3]
  IC50: 14.5 µM (active)

## O=C1OC(c2ccc([N+](=O)[O-])cc2)=N/C1=C/N1CC2CC(C1)c1cccc(=O)n1C2 (stereo not given)
[10]
  EC50: 10.6 µM (active)

## COc1ccc(-c2nc3ccc(C(=O)NCCCN4CCOCC4)cc3nc2-c2ccc(OC)cc2)cc1
[3]
  IC50: 13.2 µM (active)

## CCN(Cc1ccccc1)C(=O)COC(=O)c1cc(Cl)nc(Cl)c1
Fatty acid synthase [1]
  IC50: 9.66 µM (active)
Fatty acid synthase [2]
  IC50: 9.26 µM (active)

## Clc1ccc(-c2noc(CSc3nnc(-c4ccncc4)n3-c3ccccc3)n2)cc1
[11]
  AC50: 25 µM (active)
[12]
  AC50: 4.51 µM (active)

## CCOC(=O)N1CCN(Cc2nc3ccc([N+](=O)[O-])cc3c(=O)n2-c2cccc(OC)c2)CC1
Fatty acid synthase [1]
  IC50: 3.46 µM (active)
Fatty acid synthase [2]
  IC50: 3.04 µM (active)

## CCC(NCCc1c[nH]c2ccccc12)=C1C(=O)N(C)C(=O)N(C)C1=O
[12]
  AC50: 17.6 µM (active)

## COc1ccccc1/C=C1\SC(=S)N(CCC(=O)NCCCn2ccnc2)C1=O
[6]
  EC50: > 150 µM (not active)
BJ [7]
  EC50: > 150 µM (not active)
BJ [8]
  EC50: > 150 µM (not active)
[13]
  AC50: 6.05 µM (active)
BJ [9]
  EC50: > 75 µM (inconclusive)
BJ [14]
  EC50: > 133 µM (inactive)

## Cc1ccc2c(c1)C1CN(C)CCC1N2C(=O)Nc1cccc(Cl)c1 (stereo not given)
Cytochrome P450 2C9
  AC50: 39.8 µM (inconclusive)
[5]
  IC50: 8.64 µM (not active)

## O=[N+]([O-])c1cc(C(F)(F)F)ccc1N1CCCNCC1
[10]
  EC50: 0.841 µM (active)

## O=C(CCN1C(=O)/C(=C\c2cccc(Br)c2)SC1=S)NCCCN1CCOCC1
[6]
  EC50: 4.75 µM (active)
BJ [7]
  EC50: 93.6 µM (inconclusive)
BJ [8]
  EC50: 1.4 µM (inconclusive)
BJ [9]
  EC50: > 150 µM (not active)
BJ [14]
  EC50: > 66.7 µM (inactive)

## O=S(=O)(Nc1ccc(-c2csc(-c3ccccc3)n2)cc1)c1ccccc1
Fatty acid synthase [1]
  IC50: 9.18 µM (active)
[13]
  AC50: 5.04 µM (active)
Fatty acid synthase [2]
  IC50: 8.85 µM (active)

## CN1CCN(C(=O)c2cccn(Cc3c(Cl)cccc3Cl)c2=O)CC1
[10]
  EC50: 0.668 µM (active)

## CN(C)C(CNC(=O)Cc1c(Cl)cccc1Cl)c1ccccc1 (stereo not given)
[10]
  EC50: 0.376 µM (active)

## CN1CCN(S(=O)(=O)c2cccc(C(=O)Nc3ccc(Br)cc3Br)c2)CC1
[3]
  IC50: 12.6 µM (active)

## C[C@]12CC[C@H](O)C=C1CC[C@@H]1[C@@H]2CC[C@]2(C)C(c3ccc(=O)oc3)CC[C@]12O (stereo not given in full)
P388/ADR
  GI50: 119 µM (inactive)
P388
  GI50: 116 µM (inactive)
SN12K1
  GI50: 0.0136 µM (active)

## C=C1C(=O)OC2C1CC1OC2C(C)CCC/C(C)=C\CCC1(C)O (stereo not given)
P388/ADR
  GI50: 9.66 µM (inactive)
P388
  GI50: 8.05 µM (inactive)
SN12K1
  GI50: 10.9 µM (inactive)

## CCN(CC)CCCNc1ncc(C)c2[nH]c3ccncc3c12
P388/ADR
  GI50: 76.9 µM (inactive)
P388
  GI50: 0.479 µM (active)
SN12K1
  GI50: 5.56 µM (inactive)

## COc1ccc(C(=O)/C(Br)=C/C(=O)O)cc1
P388/ADR
  GI50: 17.7 µM (inactive)
P388
  GI50: 11.7 µM (inactive)
SN12K1
  GI50: 6 µM (inactive)

## COc1cc(C2c3cc4c(cc3[C@@H](Nc3cnc5ccccc5c3)C3COC(=O)[C@H]23)OCO4)cc(OC)c1O (stereo not given in full)
P388/ADR
  GI50: 0.182 µM (active)
P388
  GI50: < 0.01 µM (active)
SN12K1
  GI50: 0.0269 µM (active)

## Cc1nn(-c2ccc(Br)cc2)c(O)c1/C=N/c1ccc(S(=O)(=O)Nc2nccs2)cc1
[5]
  IC50: 6 µM (active)

## NCCCNc1ccc2c3c(nn2CCNCCO)-c2c(O)ccc(O)c2C(=O)c13
P388/ADR
  GI50: 1.21 µM (inactive)
P388
  GI50: 0.146 µM (active)
SN12K1
  GI50: 0.167 µM (active)

## COc1cccc(N2C(N)=NC(N)=NC2(C)C)c1
[6]
  EC50: 12.6 µM (active)
BJ [7]
  EC50: 5.99 µM (inconclusive)
BJ [8]
  EC50: > 150 µM (not active)
Streptococcus
  EC50: 1.42 µM (active)
[15]
  EC50: 0.355 µM (active)
BJ [9]
  EC50: > 150 µM (not active)
BJ [14]
  EC50: > 133 µM (inactive)
